The record followed here is ChEMBL document CHEMBL1137954, “Carbonic anhydrase inhibitors: inhibition of the tumor-associated isozyme IX with fluorine-containing sulfonamides. The first subnanomolar CA IX inhibitor discovered” (Bioorg Med Chem Lett, 2004).

Targets include Carbonic anhydrase 9 (Homo sapiens, UniProt Q16790); Carbonic anhydrase 2 (Homo sapiens, UniProt P00918); Carbonic anhydrase 1 (Homo sapiens, UniProt P00915).

Chain of Carbonic anhydrase 1 (P00915 whole entry): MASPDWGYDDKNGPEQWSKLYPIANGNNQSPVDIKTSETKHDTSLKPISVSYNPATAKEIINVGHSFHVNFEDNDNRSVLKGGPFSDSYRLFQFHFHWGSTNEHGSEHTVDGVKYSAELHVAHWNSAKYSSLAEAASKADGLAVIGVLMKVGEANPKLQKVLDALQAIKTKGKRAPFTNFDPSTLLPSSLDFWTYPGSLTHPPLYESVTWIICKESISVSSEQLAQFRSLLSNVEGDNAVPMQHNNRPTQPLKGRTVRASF
Description for Carbonic anhydrase 1: Inhibitory activity against human carbonic anhydrase I
Description for Carbonic anhydrase 2: Inhibitory activity against human carbonic anhydrase II
Description for Carbonic anhydrase 9: Inhibitory activity against human carbonic anhydrase IX

In general, Ki refers to the dissociation constant of the complex between target and ligand, obtained from inhibition or displacement. Higher therefore signals a looser hold on the target. `NS(=O)(=O)c1ccc(CNS(=O)(=O)c2c(F)c(F)cc(F)c2F)cc1`: the inhibitory constant (Ki) at Carbonic anhydrase 9 stood at 8.5 nM; on Carbonic anhydrase 2 it was 12 nM; on Carbonic anhydrase 1, 860 nM.
The corresponding values for `NS(=O)(=O)c1ccc(CCNS(=O)(=O)c2c(F)c(F)cc(F)c2F)cc1` are 7 nM, 9 nM and 750 nM.
With `NS(=O)(=O)c1ccc(CNS(=O)(=O)c2ccc(NC(=O)c3c(F)c(F)cc(F)c3F)cc2)cc1`, the Ki was determined as 15 nM on Carbonic anhydrase 2 and 6100 nM on Carbonic anhydrase 1.
As to `NS(=O)(=O)c1nnc(NS(=O)(=O)c2c(F)c(F)cc(F)c2F)s1`, the figures for the Ki on Carbonic anhydrase 9, at Carbonic anhydrase 2 and on Carbonic anhydrase 1 were 4.3 nM, 0.7 nM and 13 nM, respectively.
The corresponding values for `NS(=O)(=O)c1ccc(CNC(=O)c2c(F)c(F)cc(F)c2F)cc1` are 9.5 nM, 13 nM and 980 nM.
The corresponding values for `NS(=O)(=O)c1ccc(NC(=O)c2c(F)c(F)cc(F)c2F)c(Cl)c1` are 16 nM, 76 nM and 1080 nM.
Regarding `NS(=O)(=O)c1ccc(NC(=O)c2c(F)c(F)cc(F)c2F)c(F)c1`, the Ki on Carbonic anhydrase 9 came to 24 nM; on Carbonic anhydrase 2, 1.5 nM; on Carbonic anhydrase 1, 760 nM.
Taken in the same sequence, the figures for `NS(=O)(=O)c1ccc(NC(=O)c2c(F)c(F)cc(F)c2F)c(Br)c1` were 4.8 nM, 84 nM and 1870 nM.
Consider `NS(=O)(=O)c1ccccc1NC(=O)c1c(F)c(F)cc(F)c1F`, for which the inhibition constant Ki at Carbonic anhydrase 9 amounted to 9.5 nM; at Carbonic anhydrase 2, 38 nM; at Carbonic anhydrase 1, 1500 nM.
The corresponding values for `NS(=O)(=O)c1nnc(NC(=O)c2c(F)c(F)cc(F)c2F)s1` are 12.6 nM, 2.1 nM and 250 nM.
For the molecule `NS(=O)(=O)c1ccc(NC(=O)c2c(F)c(F)cc(F)c2F)cc1`, the Ki was 15.2 nM at Carbonic anhydrase 9, 16 nM at Carbonic anhydrase 2 and 975 nM on Carbonic anhydrase 1.
Consider `Cn1nc(S(N)(=O)=O)s/c1=N\C(=O)c1c(F)c(F)cc(F)c1F`, for which the inhibitory constant (Ki) turned out to be 10.5 nM at Carbonic anhydrase 9, 1.4 nM at Carbonic anhydrase 2 and 270 nM on Carbonic anhydrase 1.
Taken in the same sequence, the figures for `NS(=O)(=O)c1ccc(CCNS(=O)(=O)c2ccc(NC(=O)c3c(F)c(F)cc(F)c3F)cc2)cc1` were 7.6 nM, 13 nM and 6000 nM.
Turning to `NS(=O)(=O)c1cccc(NC(=O)c2c(F)c(F)cc(F)c2F)c1`, the Ki on Carbonic anhydrase 9 is 0.8 nM; on Carbonic anhydrase 2 it was 21 nM; at Carbonic anhydrase 1, 1700 nM.
Turning to `NS(=O)(=O)c1ccc(CCNC(=O)c2c(F)c(F)cc(F)c2F)cc1`, the figures for the inhibition constant (Ki) on Carbonic anhydrase 9, on Carbonic anhydrase 2 and at Carbonic anhydrase 1 were 7.3 nM, 12 nM and 900 nM, respectively.
Take `NS(=O)(=O)c1ccc(NS(=O)(=O)c2ccc(NC(=O)c3c(F)c(F)cc(F)c3F)cc2)cc1`: the results for the Ki on Carbonic anhydrase 9, at Carbonic anhydrase 2 and on Carbonic anhydrase 1 were 3.2 nM, 19 nM and 6300 nM, respectively.
